≈ marks a conversion by molar mass, not a printed value. Read-outs that look alike come from different tables or passages of the source.
Key:
S. aureus 13709 [1] = test: Kill kinetics of ciprofloxacin with or without gels; type: cell-based, Staphylococcus aureus
Description: (§1) Growth was measured by sampling media placed above the thixogel and then quantifying colony forming units (CFU's) by serial dilution.

P. aeruginosa 27853 [2] = test: as above; type: cell-based, Pseudomonas aeruginosa
Description: as §1

S. aureus 13709 [3] = test: Minimum Inhibitory Concentration (MIC) of antibiotics with or without thixogel; type: cell-based, Staphylococcus aureus
Source text: (§2) The Minimum Inhibitory Concentration (MIC) defines the lowest antibiotic concentration that inhibits 99.9% of bacterial growth.

P. aeruginosa 27853 [4] = test: as above; type: cell-based, Pseudomonas aeruginosa
Source text: as §2

[5] = ciprofloxacin 30 μg/mL loaded in HA and SF gels

Q: Which results are given for `O=C(O)c1cn(C2CC2)c2cc(N3CCNCC3)c(F)cc2c1=O` [Ciprofloxacin, ciprofloxacin]?
A: inhibition at 30 µg/mL (S. aureus 13709 [1]; Staphylococcus aureus, 13709, gel loaded drug, 30 μg/mL, read-out: inhibition of bacterial growth): 100%; time to complete inhibition of bacterial growth (S. aureus 13709 [1]; [5]): around four; inhibition of bacterial growth (S. aureus 13709 [1]; gel loaded drug, 30 μg/mL): more than 3 log10; inhibition at 30 µg/mL (P. aeruginosa 27853 [2]; Pseudomonas aeruginosa, 27853, gel loaded drug, 30 μg/mL, read-out: inhibition of bacterial growth): 100%; time to complete inhibition of bacterial growth (P. aeruginosa 27853 [2]; [5]): around four; inhibition of bacterial growth (P. aeruginosa 27853 [2]; gel loaded drug, 30 μg/mL): more than 3 log10

Q: What does the source list for `C[C@@H](O)[C@H]1C(=O)N2C(C(=O)O)=C(SCCN=CN)C[C@H]12` [Imipenem, imipenem]?
A: MIC (S. aureus 13709 [3]; Staphylococcus aureus, 13709, S. aureus 13709, No Gel, read-out: Minimum Inhibitory Concentrations (MIC)): 0.032 µg/mL (≈ 0.107 µM); MIC (S. aureus 13709 [3]; Staphylococcus aureus, 13709, S. aureus 13709, antibiotic delivered in HA thixogel, read-out: Minimum Inhibitory Concentrations (MIC)): < 0.032 µg/mL; MIC (S. aureus 13709 [3]; Staphylococcus aureus, 13709, S. aureus 13709, antibiotic delivered in SF thixogel, read-out: Minimum Inhibitory Concentrations (MIC)): 0.125 µg/mL (≈ 0.418 µM); MIC (P. aeruginosa 27853 [4]; Pseudomonas aeruginosa, 27853, P. aeruginosa 27853, No Gel, read-out: Minimum Inhibitory Concentrations (MIC)): 2 µg/mL (≈ 6.68 µM); MIC (P. aeruginosa 27853 [4]; Pseudomonas aeruginosa, 27853, P. aeruginosa 27853, antibiotic delivered in HA thixogel, read-out: Minimum Inhibitory Concentrations (MIC)): 4 µg/mL (≈ 13.4 µM); MIC (P. aeruginosa 27853 [4]; Pseudomonas aeruginosa, 27853, P. aeruginosa 27853, antibiotic delivered in SF thixogel, read-out: Minimum Inhibitory Concentrations (MIC)): > 4 µg/mL

Q: What does the source list for `CN[C@H](CC(C)C)C(=O)N[C@H]1C(=O)N[C@@H](CC(N)=O)C(=O)N[C@H]2C(=O)N[C@H]3C(=O)N[C@H](C(=O)N[C@H](C(=O)O)c4cc(O)cc(O)c4-c4cc3ccc4O)[C@H](O)c3ccc(c(Cl)c3)Oc3cc2cc(c3O[C@@H]2O[C@H](CO)[C@@H](O)[C@H](O)[C@H]2O[C@H]2C[C@](C)(N)[C@H](O)[C@H](C)O2)Oc2ccc(cc2Cl)[C@H]1O` [Vancomycin, vancomycin]?
A: potency / coverage of both pathogenic bacteria (S. aureus 13709 [3]; S. aureus (Gram positive)): did not give coverage of both; MIC (S. aureus 13709 [3]; Staphylococcus aureus, 13709, read-out: Minimum Inhibitory Concentrations (MIC), S. aureus 13709, No Gel): 2 µg/mL (≈ 1.38 µM); MIC (S. aureus 13709 [3]; Staphylococcus aureus, 13709, read-out: Minimum Inhibitory Concentrations (MIC), S. aureus 13709, antibiotic delivered in HA thixogel): 16 µg/mL (≈ 11 µM); MIC (S. aureus 13709 [3]; Staphylococcus aureus, 13709, read-out: Minimum Inhibitory Concentrations (MIC), S. aureus 13709, antibiotic delivered in SF thixogel): 4 µg/mL (≈ 2.76 µM); potency / coverage of both pathogenic bacteria (P. aeruginosa 27853 [4]; P. aeruginosa (Gram negative)): did not give coverage of both; MIC (P. aeruginosa 27853 [4]; Pseudomonas aeruginosa, 27853, read-out: Minimum Inhibitory Concentrations (MIC), P. aeruginosa 27853, No Gel): > 4 µg/mL; MIC (P. aeruginosa 27853 [4]; Pseudomonas aeruginosa, 27853, read-out: Minimum Inhibitory Concentrations (MIC), P. aeruginosa 27853, antibiotic delivered in HA thixogel): > 32 µg/mL; MIC (P. aeruginosa 27853 [4]; Pseudomonas aeruginosa, 27853, read-out: Minimum Inhibitory Concentrations (MIC), P. aeruginosa 27853, antibiotic delivered in SF thixogel): > 32 µg/mL

Q: Which “effect of the gels (SF and HA) upon potency” value (S. aureus 13709 [3]; S. aureus) does the source give for gentamycin here?
A: deleterious effect upon potency

Q: What about the “Minimum Inhibitory Concentrations (MIC)” value (S. aureus 13709 [3]; S. aureus 13709, No Gel) of the same molecule?
A: 1 µg/mL

Q: And the “Minimum Inhibitory Concentrations (MIC)” value (S. aureus 13709 [3]; S. aureus 13709, antibiotic delivered in HA thixogel)?
A: 32 µg/mL

Q: What about the “Minimum Inhibitory Concentrations (MIC)” value (S. aureus 13709 [3]; S. aureus 13709, antibiotic delivered in SF thixogel) of the same molecule?
A: 8 µg/mL

Q: And the “effect of the gels (SF and HA) upon potency” value (P. aeruginosa 27853 [4]; P. aeruginosa)?
A: deleterious effect upon potency

Q: And the “Minimum Inhibitory Concentrations (MIC)” value (P. aeruginosa 27853 [4]; P. aeruginosa 27853, No Gel)?
A: 2 µg/mL

Q: What about the “Minimum Inhibitory Concentrations (MIC)” value (P. aeruginosa 27853 [4]; P. aeruginosa 27853, antibiotic delivered in HA thixogel) of the same molecule?
A: 32 µg/mL

Q: What about the “Minimum Inhibitory Concentrations (MIC)” value (P. aeruginosa 27853 [4]; P. aeruginosa 27853, antibiotic delivered in SF thixogel) of the same molecule?
A: 32 µg/mL

— patent US20260174871A1, “THIXOTROPIC DELIVERY SYSTEMS” (UNIVERSITY OF MONTANA, priority 2019, published 2026)
